# Tests used:
# Experiment in all cases: relative viability (nuclei count vs DMSO), 5 days (fraction); higher = more cells survive
# Carfilzomib + Navitoclax = compound: CC(C)C[C@H](NC(=O)[C@H](CCc1ccccc1)NC(=O)CN1CCOCC1)C(=O)N[C@@H](Cc1ccccc1)C(=O)N[C@@H](CC(C)C)C(=O)[C@@]1(C)CO1 [Carfilzomib] + CC1(C)CCC(c2ccc(Cl)cc2)=C(CN2CCN(c3ccc(C(=O)NS(=O)(=O)c4ccc(N[C@H](CCN5CCOCC5)CSc5ccccc5)c(S(=O)(=O)C(F)(F)F)c4)cc3)CC2)C1 [Navitoclax] (partner 0.5 µM)
# In short: (§1)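 Lung cancer cell lines in 1536-well plates got either a single drug or a fixed anchor-drug dose together with five library-drug doses (not always all listed) in √10 steps, by pin tool, on the day after seeding. Nuclei were counted after 5 days, and relative viability is the treated-to-vehicle ratio of nuclei counts. Values are medians of duplicate plates.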
# Carfilzomib + Pemetrexed = compound: CC(C)C[C@H](NC(=O)[C@H](CCc1ccccc1)NC(=O)CN1CCOCC1)C(=O)N[C@@H](Cc1ccccc1)C(=O)N[C@@H](CC(C)C)C(=O)[C@@]1(C)CO1 [Carfilzomib] + Nc1nc2[nH]cc(CCc3ccc(C(=O)N[C@@H](CCC(=O)O)C(=O)O)cc3)c2c(=O)[nH]1 [Pemetrexed] (partner 0.2 µM)
# In short: as §1
# Carfilzomib + Foretinib = compound: CC(C)C[C@H](NC(=O)[C@H](CCc1ccccc1)NC(=O)CN1CCOCC1)C(=O)N[C@@H](Cc1ccccc1)C(=O)N[C@@H](CC(C)C)C(=O)[C@@]1(C)CO1 [Carfilzomib] + COc1cc2c(Oc3ccc(NC(=O)C4(C(=O)Nc5ccc(F)cc5)CC4)cc3F)ccnc2cc1OCCCN1CCOCC1 [Foretinib] (partner 0.25 µM)
# In short: as §1
# Olaparib + Foretinib = compound: O=C(c1cc(Cc2n[nH]c(=O)c3ccccc23)ccc1F)N1CCN(C(=O)C2CC2)CC1 [Olaparib] + COc1cc2c(Oc3ccc(NC(=O)C4(C(=O)Nc5ccc(F)cc5)CC4)cc3F)ccnc2cc1OCCCN1CCOCC1 [Foretinib] (partner 0.25 µM)
# In short: as §1
Cell Line,relative viability (Carfilzomib + Navitoclax; first compound 0.001 µM),relative viability (Carfilzomib + Navitoclax; first compound 0.003162 µM),relative viability (Carfilzomib + Navitoclax; first compound 0.01 µM),relative viability (Carfilzomib + Navitoclax; first compound 0.03162 µM),relative viability (Carfilzomib + Navitoclax; first compound 0.1 µM),relative viability (Carfilzomib + Pemetrexed; first compound 0.001 µM),relative viability (Carfilzomib + Pemetrexed; first compound 0.003162 µM),relative viability (Carfilzomib + Pemetrexed; first compound 0.01 µM),relative viability (Carfilzomib + Pemetrexed; first compound 0.03162 µM),relative viability (Carfilzomib + Pemetrexed; first compound 0.1 µM),relative viability (Carfilzomib + Foretinib; first compound 0.001 µM),relative viability (Carfilzomib + Foretinib; first compound 0.003162 µM),relative viability (Carfilzomib + Foretinib; first compound 0.01 µM),relative viability (Carfilzomib + Foretinib; first compound 0.03162 µM),relative viability (Carfilzomib + Foretinib; first compound 0.1 µM),relative viability (Olaparib + Foretinib; first compound 0.08 µM),relative viability (Olaparib + Foretinib; first compound 0.253 µM),relative viability (Olaparib + Foretinib; first compound 2.53 µM),relative viability (Olaparib + Foretinib; first compound 8 µM)
HCC-44,0.94,1.01,1,0.829,0.261,0.665,0.605,0.658,0.705,0.685,–,–,–,–,–,–,–,–,–
HCC-78,0.546,0.925,0.748,0.503,0.179,0.876,0.868,0.904,0.967,0.9,0.541,0.576,0.581,0.571,0.322,0.622,0.562,0.557,0.514
HCC-366,1.02,0.98,0.956,1.03,0.0374,0.158,0.149,0.2,0.17,0.039,0.933,0.963,0.916,0.648,0.121,0.875,0.908,0.889,0.636
HCC-827,0.983,1.05,1.03,0.907,0.369,0.252,0.267,0.277,0.254,0.155,1.09,1.06,1.08,0.928,0.387,0.959,0.959,0.956,0.797
HOP-62,1.1,1.11,0.887,0.167,0.107,0.404,0.304,0.417,0.0823,0.063,1.12,1.13,0.938,0.328,0.0784,1.19,1.13,0.892,0.774
IA-LM,0.851,0.815,0.879,0.0554,0.01,–,–,–,–,–,1.22,1.23,0.899,0.0144,0.0167,1.36,0.978,1.06,1.02
LC-2-ad,0.568,0.452,0.407,0.227,0.135,0.275,0.302,0.28,0.273,0.232,0.881,1.01,1.08,0.903,0.221,1.05,0.816,1.01,0.889
LCLC-97TM1,0.285,0.47,0.478,0.171,0.128,0.164,0.176,0.173,0.167,0.0627,0.958,0.874,0.893,0.529,0.25,0.912,0.827,0.958,0.812
LCLC-103H,–,–,–,–,–,0.483,0.459,0.529,0.446,0.404,0.772,0.714,0.814,0.646,0.225,1.13,0.652,0.732,0.673
NCI-H358,–,–,–,–,–,0.169,0.164,0.173,0.136,0.102,0.688,1.01,0.63,0.0762,0.0649,0.962,0.66,0.675,0.64
NCI-H522,–,–,–,–,–,1.19,0.906,0.963,0.717,0.339,–,–,–,–,–,–,–,–,–
NCI-H650,–,–,–,–,–,0.954,1.04,1.27,0.781,0.137,–,1.27,1.03,0.71,0.174,1.11,1.02,0.909,0.794
NCI-H661,–,–,–,–,–,0.925,0.948,0.902,0.903,0.415,1.05,1.16,1.07,1.06,0.377,1.16,0.97,0.948,0.775
NCI-H727,0.429,0.637,0.601,0.165,0.137,–,–,–,–,–,0.758,0.891,0.996,0.617,0.397,0.843,1.06,0.911,0.703
NCI-H1299,1.08,1.05,1.03,0.887,0.195,–,–,–,–,–,1.03,1.02,1.14,0.597,0.117,1.13,1.07,1.11,1.07
NCI-H1563,–,–,–,–,–,0.685,0.773,0.727,0.82,0.498,0.927,1.08,0.968,0.828,0.517,0.962,0.92,1.02,0.935
NCI-H1623,–,–,–,–,–,–,–,–,–,–,0.838,0.906,1.14,0.455,0.514,0.954,0.88,0.814,0.647
NCI-H1648,–,–,–,–,–,0.717,0.671,0.805,0.416,0.263,–,–,–,–,–,–,–,–,–
NCI-H1703,1.13,1.17,0.164,0.151,0.102,–,–,–,–,–,–,0.421,0.231,0.126,0.154,0.469,0.328,0.333,0.364
NCI-H1792,0.575,0.628,0.563,0.612,0.555,–,0.937,0.773,0.49,0.0813,–,–,–,–,–,–,–,–,–
NCI-H2342,–,–,–,–,–,0.732,0.786,0.853,0.78,0.449,1.04,1.06,1.08,0.988,0.621,1.18,1.18,0.977,0.948
SW 900,–,–,–,–,–,–,0.497,0.176,0.152,0.216,1.01,0.999,0.315,0.0988,0.116,0.999,0.744,0.994,0.659
